{"source": "patent US20260125400A1", "about": "“TYK2 DEGRADERS AND USES THEREOF” (Kymera Therapeutics, Inc., priority 2023, published 2026)"}
{"biological_target": "T1, TYK2 (Homo sapiens, UniProt P29597)", "T1 construct": "Degradation of TYK2 in cells was quantitatively measured using Meso Scale Discovery (MSD) technology; endogenous in cells; host or cells: OCI-LY10", "T1 sequence (P29597 whole entry)": "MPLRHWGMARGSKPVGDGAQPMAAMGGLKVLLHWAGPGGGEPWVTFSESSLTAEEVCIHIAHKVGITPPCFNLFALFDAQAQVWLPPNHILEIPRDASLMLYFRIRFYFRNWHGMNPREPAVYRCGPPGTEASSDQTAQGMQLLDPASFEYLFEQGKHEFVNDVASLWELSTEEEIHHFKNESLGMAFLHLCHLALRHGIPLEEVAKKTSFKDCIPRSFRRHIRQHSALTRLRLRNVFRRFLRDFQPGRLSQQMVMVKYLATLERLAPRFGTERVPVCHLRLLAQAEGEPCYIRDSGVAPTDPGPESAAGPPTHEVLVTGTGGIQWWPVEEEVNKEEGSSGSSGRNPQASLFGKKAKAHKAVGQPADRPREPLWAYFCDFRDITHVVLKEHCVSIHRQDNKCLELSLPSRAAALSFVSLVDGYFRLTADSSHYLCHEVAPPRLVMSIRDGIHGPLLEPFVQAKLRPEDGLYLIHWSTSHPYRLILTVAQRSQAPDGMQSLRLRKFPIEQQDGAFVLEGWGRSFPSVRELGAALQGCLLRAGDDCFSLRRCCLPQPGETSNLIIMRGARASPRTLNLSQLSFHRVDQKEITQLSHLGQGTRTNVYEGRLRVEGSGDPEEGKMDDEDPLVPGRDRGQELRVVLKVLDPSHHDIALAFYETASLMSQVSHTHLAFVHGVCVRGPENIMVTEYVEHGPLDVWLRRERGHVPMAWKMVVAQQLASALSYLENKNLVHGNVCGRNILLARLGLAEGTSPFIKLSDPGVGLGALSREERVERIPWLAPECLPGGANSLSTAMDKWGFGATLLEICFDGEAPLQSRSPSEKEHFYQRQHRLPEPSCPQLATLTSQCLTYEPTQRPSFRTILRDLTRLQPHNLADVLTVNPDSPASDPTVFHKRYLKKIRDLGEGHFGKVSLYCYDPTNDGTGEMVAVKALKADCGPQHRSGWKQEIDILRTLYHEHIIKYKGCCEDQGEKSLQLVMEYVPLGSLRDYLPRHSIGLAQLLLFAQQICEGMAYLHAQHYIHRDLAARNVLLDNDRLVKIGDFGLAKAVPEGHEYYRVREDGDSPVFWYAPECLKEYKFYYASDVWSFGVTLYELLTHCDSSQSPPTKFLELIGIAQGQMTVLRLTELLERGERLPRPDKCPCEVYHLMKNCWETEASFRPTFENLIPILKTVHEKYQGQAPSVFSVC", "assay": "TYK2 MSD degradation in OCI-LY10 cells", "assay_type": "cell-based", "conditions": "OCI-LY10 cells, 4 to 24 hours incubation", "summary_of_the_method": "(§1)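 OCI-LY10 cells were treated with 9-dose 1:3 series (top 1 to 10 μM final) for 4 to 24 hours at 37° C. Lysate TYK2 quantified by MSD sandwich immunoassay; DC50 and Dmax from four-parameter inhibitor vs. response fit.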"}
{"smiles": "CNc1cc(N2CCc3c(CN4CCC(N5CCC6(CCN(C(=O)c7cc(Cl)c(OC)c(N8CCC(=O)NC8=O)c7)CC6)CC5)C(F)(F)C4)cccc32)nn2c(C(=O)N[C@@H]3C[C@@H]3F)cnc12", "note": "(stereo partly drawn) [I-764]", "TYK2 MSD OCI-LY10 Dmax %": "B (B (90 to >75%))"}
{"smiles": "CNc1cc(N2CCc3c(C#CCN4CCC(N5CC6(CCN(C(=O)c7ccc(Cl)c(N8CCC(=O)NC8=O)c7)CC6)C5)C(F)(F)C4)cccc32)nn2c(C(=O)N[C@@H]3C[C@@H]3F)cnc12", "note": "(stereo partly drawn) [I-701]", "TYK2 MSD OCI-LY10 Dmax %": "A (A (>90%))"}
{"smiles": "CNc1cc(-c2cn(C3CCN(CCC4CCN(C(=O)c5ccc(Cl)c(N6CCC(=O)NC6=O)c5)CC4)CC3)c3ccccc23)nn2c(C(=O)N[C@@H]3C[C@@H]3F)cnc12", "note": "[I-779]", "TYK2 MSD OCI-LY10 Dmax %": "D (D (<50%))"}
{"smiles": "CNc1cc(N2CCc3c(-c4cc(CN5CCN(c6noc7cc(N8CCC(=O)NC8=O)ccc67)CC5)ccn4)cccc32)nn2c(C(=O)N[C@@H]3C[C@@H]3F)cnc12", "note": "[I-723]", "TYK2 MSD OCI-LY10 Dmax %": "D (D (<50%))"}
{"smiles": "CNc1cc(N2CCc3c(CN4CCC(CN5CCC6(CC5)CCN(C(=O)c5ccc(Cl)c(N7CCC(=O)NC7=O)c5)CC6)C(F)(F)C4)cccc32)nn2c(C(=O)N[C@@H]3C[C@@H]3F)cnc12", "note": "(stereo partly drawn) [I-766]", "TYK2 MSD OCI-LY10 Dmax %": "A (A (>90%))"}
{"smiles": "CNc1cc(N2CCc3c(-c4ccc(CN5CC6(CCN(Cc7c(C)ccc(N8CCC(=O)NC8=O)c7C)CC6(F)F)C5)cn4)cccc32)nn2c(C(=O)N[C@@H]3C[C@@H]3F)cnc12", "note": "[I-458]", "TYK2 MSD OCI-LY10 Dmax %": "D (D (<50%))"}
{"smiles": "CNc1cc(N2CCc3c(-c4ccc(CN5CC6(CCN(C(=O)c7cc(N8CCC(=O)NC8=O)c(C)cn7)CC6)C5)cn4)cccc32)nn2c(C(=O)N[C@@H]3C[C@@H]3F)cnc12", "note": "[I-782]", "TYK2 MSD OCI-LY10 Dmax %": "A (A (>90%))"}
{"smiles": "CNc1cc(-c2cn(CC3CCN(C4CCN(C(=O)c5ccc(Cl)c(N6CCC(=O)NC6=O)c5)CC4)CC3)c3ccccc23)nn2c(C(=O)N[C@@H]3C[C@@H]3F)cnc12", "note": "[I-768]", "TYK2 MSD OCI-LY10 Dmax %": "D (D (<50%))"}
{"biological_target": "T1, TYK2", "assay": "TYK2 MSD degradation in OCI-LY10 cells", "assay_type": "cell-based", "conditions": "OCI-LY10 cells, 4 to 24 hours incubation, read-out: TYK2 MSD OCI-LY10 Rel-DC50", "summary_of_the_method": "as §1", "units": {"DC50": "nM"}}
{"smiles": "CNc1cc(N2CCc3c(CN4CCC(N5CCC6(CCN(C(=O)c7cc(Cl)c(OC)c(N8CCC(=O)NC8=O)c7)CC6)CC5)C(F)(F)C4)cccc32)nn2c(C(=O)N[C@@H]3C[C@@H]3F)cnc12", "note": "(stereo partly drawn) [I-764]", "DC50": "< 10"}
{"smiles": "CNc1cc(N2CCc3c(C#CCN4CCC(N5CC6(CCN(C(=O)c7ccc(Cl)c(N8CCC(=O)NC8=O)c7)CC6)C5)C(F)(F)C4)cccc32)nn2c(C(=O)N[C@@H]3C[C@@H]3F)cnc12", "note": "(stereo partly drawn) [I-701]", "DC50": "< 1"}
{"smiles": "CNc1cc(-c2cn(C3CCN(CCC4CCN(C(=O)c5ccc(Cl)c(N6CCC(=O)NC6=O)c5)CC4)CC3)c3ccccc23)nn2c(C(=O)N[C@@H]3C[C@@H]3F)cnc12", "note": "[I-779]", "DC50": "> 100"}
{"smiles": "CNc1cc(N2CCc3c(-c4cc(CN5CCN(c6noc7cc(N8CCC(=O)NC8=O)ccc67)CC5)ccn4)cccc32)nn2c(C(=O)N[C@@H]3C[C@@H]3F)cnc12", "note": "[I-723]", "DC50": "> 100"}
{"smiles": "CNc1cc(N2CCc3c(CN4CCC(CN5CCC6(CC5)CCN(C(=O)c5ccc(Cl)c(N7CCC(=O)NC7=O)c5)CC6)C(F)(F)C4)cccc32)nn2c(C(=O)N[C@@H]3C[C@@H]3F)cnc12", "note": "(stereo partly drawn) [I-766]", "DC50": "< 1"}
{"smiles": "CNc1cc(N2CCc3c(-c4ccc(CN5CC6(CCN(Cc7c(C)ccc(N8CCC(=O)NC8=O)c7C)CC6(F)F)C5)cn4)cccc32)nn2c(C(=O)N[C@@H]3C[C@@H]3F)cnc12", "note": "[I-458]", "DC50": "< 10"}
{"smiles": "CNc1cc(N2CCc3c(-c4ccc(CN5CC6(CCN(C(=O)c7cc(N8CCC(=O)NC8=O)c(C)cn7)CC6)C5)cn4)cccc32)nn2c(C(=O)N[C@@H]3C[C@@H]3F)cnc12", "note": "[I-782]", "DC50": "< 1"}
{"smiles": "CNc1cc(-c2cn(CC3CCN(C4CCN(C(=O)c5ccc(Cl)c(N6CCC(=O)NC6=O)c5)CC4)CC3)c3ccccc23)nn2c(C(=O)N[C@@H]3C[C@@H]3F)cnc12", "note": "[I-768]", "DC50": "> 100"}
{"biological_target": "T1, TYK2", "assay": "TYK2 MSD degradation in OCI-LY10 cells", "assay_type": "cell-based", "conditions": "TYK2 degradation in OCI-LY10 cells, 4 to 24 hours incubation", "summary_of_the_method": "as §1"}
{"smiles": "CNc1cc(N2CCc3c(-c4ccc(CN5CC6(CCC(=Cc7ccc(Cl)c(N8CCC(=O)NC8=O)c7)CC6)C5)cn4)cccc32)nn2c(C(=O)N[C@@H]3C[C@@H]3F)cnc12", "note": "[I-884]", "TYK2 MSD OCI-LY10 Dmax %": "C (C (75 to 50%))"}
{"smiles": "CNc1cc(N2CCc3c(-c4ccc(CN5CCC(N6CCC(C#Cc7ccc8c(c7)n(C)c(=O)n8C7CCC(=O)NC7=O)CC6)C(F)(F)C5)cn4)cccc32)nn2c(C(=O)N[C@H]3C[C@H]3F)cnc12", "note": "(stereo partly drawn) [I-86]", "TYK2 MSD OCI-LY10 Dmax %": "C (C (75 to 50%))"}
{"smiles": "CNc1cc(N2CCc3c(C4CCN(CC5CC6(CCN(C(=O)c7ccc(Cl)c(N8CCC(=O)NC8=O)c7)CC6)C5)CC4)cccc32)nn2c(C(=O)NC3CC3)cnc12", "note": "[I-60]", "TYK2 MSD OCI-LY10 Dmax %": "C (C (75 to 50%))"}
{"smiles": "CNc1cc(N2CCc3c(-c4ncc([C@H](C)N5CC6(CCN(C(=O)c7cc(C)c(Cl)c(N8CCC(=O)NC8=O)c7)CC6(F)F)C5)cc4F)cccc32)nn2c(C(=O)N[C@@H]3CC[C@H]3OC)cnc12", "note": "[I-1143]", "TYK2 MSD OCI-LY10 Dmax %": "A (A (>90%))"}
{"smiles": "CNc1cc(N2CCc3c(-c4ccc(N5CCC6(CCN(C(=O)c7ccc(Cl)c(N8CCC(=O)NC8=O)c7)CC6)CC5)cn4)cccc32)nn2c(C(=O)N[C@@H]3C[C@@H]3F)cnc12", "note": "[I-249]", "TYK2 MSD OCI-LY10 Dmax %": "D (D (<50%))"}
{"smiles": "CNc1cc(N2CCc3c(CN4CCC(N5CCC6(CCN(C(=O)c7cc(N8CCC(=O)NC8=O)c(C)cn7)CC6)CC5)C(F)(F)C4)cccc32)nn2c(C(=O)N[C@@H]3C[C@@H]3F)cnc12", "note": "(stereo partly drawn) [I-1022]", "TYK2 MSD OCI-LY10 Dmax %": "B (B (90 to >75%))"}
{"smiles": "CNc1cc(N2CC3(CCN(Cc4ccc5c(c4)n(C)c(=O)n5C4CCC(=O)NC4=O)CC3)c3ccccc32)nn2c(C(=O)NC3CC3)cnc12", "note": "(stereo not drawn) [I-34]", "TYK2 MSD OCI-LY10 Dmax %": "D (D (<50%))"}
{"smiles": "CNc1cc(N2CCc3c(-c4ccc(CN5CCC6(CC5)CCN(c5ccc(N7CCC(=O)NC7=O)c(Cl)c5)CC6)cn4)cccc32)nn2c(C(=O)N[C@@H]3C[C@@H]3F)cnc12", "note": "[I-74]", "TYK2 MSD OCI-LY10 Dmax %": "D (D (<50%))"}
{"smiles": "CNc1cc(N2CCc3c(CN4CCC5(CCN(C6CCN(C(=O)c7ccc(Cl)c(N8CCC(=O)NC8=O)c7)CC6)CC5)C(F)(F)C4)cccc32)nn2c(C(=O)N[C@@H]3C[C@@H]3F)cnc12", "note": "[I-836]", "TYK2 MSD OCI-LY10 Dmax %": "B (B (90 to >75%))"}
{"smiles": "CNc1cc(N2CCc3c(CN4CCC(N5CC(N6CCN(c7cccc8c(N9CCC(=O)NC9=O)nn(C)c78)CC6)C5)C(F)(F)C4)cccc32)nn2c(C(=O)N[C@@H]3C[C@@H]3F)cnc12", "note": "(stereo partly drawn) [I-903]", "TYK2 MSD OCI-LY10 Dmax %": "B (B (90 to >75%))"}
{"biological_target": "T1, TYK2", "assay": "TYK2 MSD degradation in OCI-LY10 cells", "assay_type": "cell-based", "conditions": "TYK2 degradation in OCI-LY10 cells, 4 to 24 hours incubation, read-out: TYK2 MSD OCI-LY10 Rel-DC50", "summary_of_the_method": "as §1", "units": {"DC50": "nM"}}
{"smiles": "CNc1cc(N2CCc3c(-c4ccc(CN5CC6(CCC(=Cc7ccc(Cl)c(N8CCC(=O)NC8=O)c7)CC6)C5)cn4)cccc32)nn2c(C(=O)N[C@@H]3C[C@@H]3F)cnc12", "note": "[I-884]", "DC50": "10 to 100"}
{"smiles": "CNc1cc(N2CCc3c(-c4ccc(CN5CCC(N6CCC(C#Cc7ccc8c(c7)n(C)c(=O)n8C7CCC(=O)NC7=O)CC6)C(F)(F)C5)cn4)cccc32)nn2c(C(=O)N[C@H]3C[C@H]3F)cnc12", "note": "(stereo partly drawn) [I-86]", "DC50": "< 10"}
{"smiles": "CNc1cc(N2CCc3c(C4CCN(CC5CC6(CCN(C(=O)c7ccc(Cl)c(N8CCC(=O)NC8=O)c7)CC6)C5)CC4)cccc32)nn2c(C(=O)NC3CC3)cnc12", "note": "[I-60]", "DC50": "< 10"}
{"smiles": "CNc1cc(N2CCc3c(-c4ncc([C@H](C)N5CC6(CCN(C(=O)c7cc(C)c(Cl)c(N8CCC(=O)NC8=O)c7)CC6(F)F)C5)cc4F)cccc32)nn2c(C(=O)N[C@@H]3CC[C@H]3OC)cnc12", "note": "[I-1143]", "DC50": "< 1"}
{"smiles": "CNc1cc(N2CCc3c(-c4ccc(N5CCC6(CCN(C(=O)c7ccc(Cl)c(N8CCC(=O)NC8=O)c7)CC6)CC5)cn4)cccc32)nn2c(C(=O)N[C@@H]3C[C@@H]3F)cnc12", "note": "[I-249]", "DC50": "> 100"}
{"smiles": "CNc1cc(N2CCc3c(CN4CCC(N5CCC6(CCN(C(=O)c7cc(N8CCC(=O)NC8=O)c(C)cn7)CC6)CC5)C(F)(F)C4)cccc32)nn2c(C(=O)N[C@@H]3C[C@@H]3F)cnc12", "note": "(stereo partly drawn) [I-1022]", "DC50": "< 1"}
{"smiles": "CNc1cc(N2CC3(CCN(Cc4ccc5c(c4)n(C)c(=O)n5C4CCC(=O)NC4=O)CC3)c3ccccc32)nn2c(C(=O)NC3CC3)cnc12", "note": "(stereo not drawn) [I-34]", "DC50": "> 100"}
{"smiles": "CNc1cc(N2CCc3c(-c4ccc(CN5CCC6(CC5)CCN(c5ccc(N7CCC(=O)NC7=O)c(Cl)c5)CC6)cn4)cccc32)nn2c(C(=O)N[C@@H]3C[C@@H]3F)cnc12", "note": "[I-74]", "DC50": "< 10"}
{"smiles": "CNc1cc(N2CCc3c(CN4CCC5(CCN(C6CCN(C(=O)c7ccc(Cl)c(N8CCC(=O)NC8=O)c7)CC6)CC5)C(F)(F)C4)cccc32)nn2c(C(=O)N[C@@H]3C[C@@H]3F)cnc12", "note": "[I-836]", "DC50": "< 10"}
{"smiles": "CNc1cc(N2CCc3c(CN4CCC(N5CC(N6CCN(c7cccc8c(N9CCC(=O)NC9=O)nn(C)c78)CC6)C5)C(F)(F)C4)cccc32)nn2c(C(=O)N[C@@H]3C[C@@H]3F)cnc12", "note": "(stereo partly drawn) [I-903]", "DC50": "< 10"}
